Assay results taken from patent US20260226493A1, “HERBICIDE RESISTANT PLANTS” (SYNGENTA CROP PROTECTION AG, priority 2023, published 2026).

Tests used:
Test in all cases: BIO3-BIO1 mutant enzyme activity in the presence of herbicide, percentage inhibition (fluorometric DAPA assay)
Type in all cases: biochemical
Conditions in all cases: read-out: percentage inhibition
[1] = target: T1, Arabidopsis thaliana BIO3-BIO1 (BioDA) mutants (Arabidopsis thaliana, UniProt B0F481, M419I)
T1 construct: with the predicted N-terminal mitochondrial transit peptide removed; 6xHis-tag (N); thrombin cleavage site (N); made in house; host or cells: E. coli BL21 (DE3) bioA
T1 sequence (B0F481 23-833 M419I): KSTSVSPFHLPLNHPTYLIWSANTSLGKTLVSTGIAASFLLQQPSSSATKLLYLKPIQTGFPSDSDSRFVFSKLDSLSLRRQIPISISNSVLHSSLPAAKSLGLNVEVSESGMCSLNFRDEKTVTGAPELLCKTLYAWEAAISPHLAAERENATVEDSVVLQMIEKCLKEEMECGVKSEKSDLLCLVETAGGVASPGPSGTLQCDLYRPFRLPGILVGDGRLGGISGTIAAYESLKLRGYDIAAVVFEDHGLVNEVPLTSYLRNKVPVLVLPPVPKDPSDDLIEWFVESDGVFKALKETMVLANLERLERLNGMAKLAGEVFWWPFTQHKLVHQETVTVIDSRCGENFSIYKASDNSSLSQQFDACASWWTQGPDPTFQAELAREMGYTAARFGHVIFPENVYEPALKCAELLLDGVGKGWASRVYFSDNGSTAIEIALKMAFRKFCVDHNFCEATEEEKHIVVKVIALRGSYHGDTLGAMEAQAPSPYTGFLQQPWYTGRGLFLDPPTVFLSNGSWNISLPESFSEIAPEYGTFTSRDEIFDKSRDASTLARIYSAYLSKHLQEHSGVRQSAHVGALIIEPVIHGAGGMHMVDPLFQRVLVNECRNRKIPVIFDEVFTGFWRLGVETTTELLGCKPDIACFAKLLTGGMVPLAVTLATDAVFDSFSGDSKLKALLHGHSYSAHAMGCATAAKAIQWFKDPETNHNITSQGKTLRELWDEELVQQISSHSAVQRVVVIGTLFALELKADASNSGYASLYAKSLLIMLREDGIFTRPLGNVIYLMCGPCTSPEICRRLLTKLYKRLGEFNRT
Summary of the method: (§1)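 Percentage inhibition compares activity at one of three herbicide concentrations against DMSO, from o-phthalaldehyde-derivatised DAPA fluorescence (ex 410, em 470 nm). Purified N-His BIO3-BIO1 variants (50 nM, E. coli-expressed) saw herbicide 10 min at 20 °C in pH 8.6 EPPS buffer, then 20 μM KAPA plus 100 μM spermidine for 75 min at 20 °C.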

[2] = target: T2, Arabidopsis thaliana BIO3-BIO1 (BioDA) mutants (Arabidopsis thaliana, UniProt B0F481, A609T)
T2 construct: with the predicted N-terminal mitochondrial transit peptide removed; 6xHis-tag (N); thrombin cleavage site (N); made in house; host or cells: E. coli BL21 (DE3) bioA
T2 sequence (B0F481 23-833 A609T): as the sequence (B0F481 23-833 M419I) above, with I397M, A587T counted along it
Summary of the method: as §1

[3] = target: T3, Arabidopsis thaliana BIO3-BIO1 (BioDA) mutants (Arabidopsis thaliana, UniProt B0F481, S704H)
T3 construct: with the predicted N-terminal mitochondrial transit peptide removed; 6xHis-tag (N); thrombin cleavage site (N); made in house; host or cells: E. coli BL21 (DE3) bioA
T3 sequence (B0F481 23-833 S704H): as the sequence (B0F481 23-833 M419I) above, with I397M, S682H counted along it
Summary of the method: as §1

[4] = target: T4, Arabidopsis thaliana BIO3-BIO1 (BioDA) mutants (Arabidopsis thaliana, UniProt B0F481, T512I)
T4 construct: with the predicted N-terminal mitochondrial transit peptide removed; 6xHis-tag (N); thrombin cleavage site (N); made in house; host or cells: E. coli BL21 (DE3) bioA
T4 sequence (B0F481 23-833 T512I): as the sequence (B0F481 23-833 M419I) above, with I397M, T490I counted along it
Summary of the method: as §1

SMILES	inhibition at 0.01 µM [1] [%]	inhibition at 0.075 µM [1] [%]	inhibition at 0.5 µM [1] [%]	inhibition at 0.01 µM [2] [%]	inhibition at 0.075 µM [2] [%]	inhibition at 0.5 µM [2] [%]	inhibition at 0.2 µM [1] [%]	inhibition at 1 µM [1] [%]	inhibition at 5 µM [1] [%]	inhibition at 0.2 µM [3] [%]	inhibition at 1 µM [3] [%]	inhibition at 5 µM [3] [%]	inhibition at 0.2 µM [2] [%]	inhibition at 1 µM [2] [%]	inhibition at 5 µM [2] [%]	inhibition at 0.2 µM [4] [%]	inhibition at 1 µM [4] [%]	inhibition at 5 µM [4] [%]
CCn1c(Cn2ccc(C(F)(F)F)n2)cc(=O)c(C(=O)O)c1-c1ccc(Cl)c(Cl)c1 [Compound L, 2-(3,4-dichlorophenyl)-1-ethyl-4-oxo-6-[[3-(trifluoromethyl)pyrazol-1-yl]methyl]pyridine-3-carboxylic acid]	6	1	30	10	34	12												
CCn1c(C)c(-c2ccc(F)cc2F)c(=O)c(C(=O)O)c1-c1ccc(Cl)c(Cl)c1 [Compound C, 2-(3,4-dichlorophenyl)-5-(2,4-difluorophenyl)-1-ethyl-6-methyl-4-oxo-pyridine-3-carboxylic acid]							1	7	53	0	0	0	12	37	64	60	96	99
CCOC(=O)c1nn(-c2ccc3c(c2)OC(F)(F)C(F)(F)O3)c2cccc(C(C)=O)c2c1=O [Compound A, ethyl 5-acetyl-4-oxo-1-(2,2,3,3-tetrafluoro-1,4-benzodioxin-6-yl)cinnoline-3-carboxylate]								7			0			0			37	
CCn1c(-c2ccc(Cl)c(Cl)c2)c(C(=O)O)c(=O)c2cc(F)ccc21 [Compound M, 2-(3,4-dichlorophenyl)-1-ethyl-6-fluoro-4-oxo-quinoline-3-carboxylic acid]							2	21	20	0	0	0	8	39	67	48	85	96
